Experiments:
[1] = system: Cold Restraint Ulcer (CRU); experiment: Cold Restraint Ulcers (CRU) model; assay type: in vivo, rats
Description: Adult rats of either sex, weighing 150-175 grams are fasted for 24 hours in metallic cages with raised mesh bottoms to prevent coprophagia and were allowed free access to water. The test drugs were administered 45 minutes before immobilizing the animals. The rats were immobilized in the restraint cage and kept at 4° C. in BOD incubator for 2 hours (According to the method of Senay and Levine 1967). The animals were sacrificed immediately after the restraint period. The abdomen was cut opened; stomach was taken out and incised along the greater curvature to observe the gastric lesions with the help of Magnascope (5× magnification)
The following arbitrary scoring system was used to grade the severity and intensity of the lesions:
1. Shedding of epithelium=10
2. Petechial and frank hemorrhages=20
4. More than two ulcers=40
The presence of any of these lesions was considered as a positive ulcerogenic response which has been shown as percentage of rats showing gastric lesions. The severity of ulcers is expressed in terms of ulcer index, which is the mean score of gastric lesions of all the rats in a group. The term Ulcer Index is defined as:
Ulcer Index (U.I.)=Us+Up×10^−1
where Us=Mean severity of ulcer score and
Up=Percentage of animals with Ulcer incidences
The percentage protection is calculated as follows:
Percentage protection=(C−T/C)×100.
where C=Number of animals showing ulcer response in control group and
T=Number of animals showing ulcer response in test group.

[2] = system: Aspirin induced gastric ulcer; experiment: Aspirin induced gastric ulcer model; assay type: in vivo, rats
Description: Gastric ulceration was induced by aspirin according to the method of Djahanguiri (1969). Aspirin (150 mg/Kg.) was administered per orally as a suspension in gum-acacia and the animal was sacrificed 5 hr. after the aspirin treatment and the ulcer index with protection index were calculated.

[3] = system: histamine induced duodenal ulcer; experiment: Histamine induced duodenal ulcer model; assay type: in vivo, Guinea pig
Description: 1. Animals were fasted for 24 hours with access to water.
2. The drug was given orally 1 hour prior to the histamine administration.
3. Histamine was administered in a dose of 0.25 mg/Kg, i.m. at 30 minutes interval for 7 times and it induced 100% duodenal ulceration in guinea pig (According to the method of Watt and Eagleton 1964).
4. The animals were sacrificed after half an hour of last injection under ether anesthesia.
5. The stomach along with duodenum were removed washed thoroughly and examined for the lesions. Ulcer index and protection index were calculated.

[4] = system: Alcohol induced gastric ulcers; experiment: Alcohol (ethanol) induced gastric ulcers in rats; assay type: in vivo
Description: 1. Adult rats of either sex were taken; weighing 150-175 grams were fasted for 24 hours with free access to water.
2. The test drugs were administered (p.o.) 45 minutes before alcohol administration.
3.1 ml of chilled absolute alcohol was administered (p.o.) to the rats (According to the Wittetal).
4. Immediately after 1 hour, the animals were anesthetized, abdomen was cut opened stomach was taken out and incised along the greater curvature to observe the gastric lesions.
The ulcers are examined under the 5× magnification with the help of magnascope.
Absolute ethanol lesions appears as blackish lesions grouped in patches of varying size, usually parallel to the major axis of the stomach.
5. The lengths of the lesions are measured and summated to give a total lesion score, then calculated and expressed in percentage.

[5] = system: pyloric ligation induced ulcer; experiment: Pyloric ligation induced ulcer model; assay type: in vivo, rats
Description: 1. Animals were fasted for 24 hours in the raised mesh bottom cages to prevent coprophagia and were allowed free access to water. 2. The control group of rats was feed with the vehicle and the experimental groups with their respective drugs 45 minutes prior to the ligation. 3. The animal was anesthetized, abdomen was cut opened under xiphoid process, and the pyloric portion of the stomach was slightly lifted and ligated avoiding any damage to the adjacent blood vessels (According to the method of Shay et al. 1945). 4. The animals were stitched and kept for 4 hours with free access to water. 5. After 4 hours the animals were sacrificed under ether anesthesia and the stomach was dissected out incised along the greater curvature. 6. The stomach was washed thoroughly and the ulcer index was scored as per in other ulcer models.

[6] = Aspirin 150 mg/Kg p.o., 20 mg/Kg

COc1ccc2[nH]c([S+]([O-])Cc3ncc(C)c(OC)c3C)nc2c1 (centres unmarked) [Omeprazole]
Mean severity of ulcer score ([1]; 10 mg/Kg p.o.): 07 | Percentage of ulcer incidence (No. of rats showing ulcer/total No. of rats used) ([1]; 10 mg/Kg p.o.): 50 (5/10) % | Ulcer index ([1]; 10 mg/Kg p.o.): 5.7 | Ulcer severity score 10 (Shedding of epithelium), No. of rats showing lesions/No. of rats tested ([1]; 10 mg/Kg p.o.): 3/10 | Ulcer severity score 20 (Petechial and frank hemorrhages), No. of rats showing lesions/No. of rats tested ([1]; 10 mg/Kg p.o.): 2/10 | Protection index ([1]; 10 mg/Kg p.o., versus CRU control): 54.03 | Percentage protection in respect to the protection of Omeprazole ([1]; 10 mg/Kg, standard taken as 100%): 100% | Mean severity of ulcer score [2, 6]: 6.6 | Percentage of ulcer incidence (No. of rats showing ulcer/total No. of rats used) [2, 6]: 50 (3/6) % | Ulcer index [2, 6]: 5.66 | Ulcer severity score 10 (Shedding of epithelium), No. of rats showing lesions/No. of rats tested [2, 6]: 2/6 | Ulcer severity score 20 (Petechial and frank hemorrhages), No. of rats showing lesions/No. of rats tested [2, 6]: 1/6 | Protection index ([2]; Aspirin 150 mg/Kg p.o., 20 mg/Kg, versus aspirin control): 54.81 | Percentage protection in respect to the protection of Omeprazole ([2]; aspirin induced ulcer, 10 mg/Kg, standard taken as 100%): 100% | Mean severity of ulcer score ([3]; Histamine i.m., 10 mg/Kg p.o.): 6.66 | Percentage of ulcer incidence (No. of animals showing ulcer/total No. of animals used) ([3]; Histamine i.m., 10 mg/Kg p.o.): 33.33 (1/3) % | Ulcer index ([3]; Histamine i.m., 10 mg/Kg p.o.): 3.99 | Ulcer severity score 20, No. Guinea pig showing lesions/No. Guinea pig tested ([3]; Histamine i.m., 10 mg/Kg p.o.): 1/3 | Volume of gastric fluid ([3]; Histamine i.m., 10 mg/Kg p.o.): 1.0 ± 0.2 mL | % Protection ([3]; Histamine i.m., 10 mg/Kg p.o., versus ulcer control): 70.79% | Percentage protection in respect to the protection of Omeprazole ([3]; histamine induced duodenal ulcer, Omeprazole taken as 100%): 100% | Length of hemorrhagic bands (mm ± SE) ([4]; 100 mg/Kg p.o. + Ethanol): 56.0 ± 9.12 mm | Percentage protection in respect to the protection of Omeprazole ([4]; Alcohol induced ulcer, omeprazole taken as 100%): 100.0% | Ulcer index ([5]; Ligation, 10 mg/Kg p.o.): 6.6 | Protection index ([5]; Ligation, 10 mg/Kg p.o., versus ligation control): 51.44 | Percentage protection in respect to the protection of Omeprazole ([5]; pyloric ligation induced ulcer, Omeprazole taken as 100%): 100%

From patent US20030180398A1, “Composition for treating gastric ulcer and a process for preparing the same” (priority 2002, published 2003)
